Measurements reported in patent publication US20130252930A1 (BIOMARIN PHARMACEUTICAL INC., priority 2010, published 2013).
pIC50: −log10 of the molar value. Like-named read-outs stand apart in the source and are kept apart here.

Experiments:
[1] = biological target: T1, CYP17 (human testicular microsome) (Homo sapiens, UniProt P05093); test: CYP17 enzymatic assay (% inhibition at 10 nM), version 1 (Biological Example 5); type: biochemical; conditions: 10 nM compound, DHEA by ELISA, read-out: Biological Example No. 5: CYP17 percent inhibition at 10 nM (version 1)
T1 construct: using microsomal fraction from human testis (Celsis Cat #S00110) as the enzyme source; tissue Celsis S00110; host or cells: human testis microsomal fraction
T1 sequence (P05093 1-508): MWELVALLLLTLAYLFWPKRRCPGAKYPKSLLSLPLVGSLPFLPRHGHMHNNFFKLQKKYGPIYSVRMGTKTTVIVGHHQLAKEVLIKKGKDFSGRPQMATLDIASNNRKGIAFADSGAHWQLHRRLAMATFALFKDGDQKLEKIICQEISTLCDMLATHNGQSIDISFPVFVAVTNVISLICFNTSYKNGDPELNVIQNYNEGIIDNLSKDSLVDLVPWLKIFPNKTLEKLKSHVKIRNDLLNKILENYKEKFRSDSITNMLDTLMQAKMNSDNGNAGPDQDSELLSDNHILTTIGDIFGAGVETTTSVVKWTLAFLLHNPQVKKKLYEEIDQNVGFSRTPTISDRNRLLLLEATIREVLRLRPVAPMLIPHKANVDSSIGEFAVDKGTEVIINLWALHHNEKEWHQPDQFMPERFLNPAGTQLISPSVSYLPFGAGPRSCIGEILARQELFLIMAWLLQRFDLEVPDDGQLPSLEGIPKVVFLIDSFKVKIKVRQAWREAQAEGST

[2] = biological target: T2, Cyp21 enzyme (Human HEK 293-Cyp21 stable transfected cells) (Homo sapiens, UniProt P08686); test: CYP21-HEK293 enzymatic assay (% inhibition at 100 nM) (Biological Example 10); type: cell-based; conditions: 100 nM compound, HEK 293-Cyp21 cells; read-out: Biological Example No. 10: CYP21-HEK293 percent inhibition at 100 nM
T2 construct: expressed in transfected cells
T2 sequence (P08686 1-495): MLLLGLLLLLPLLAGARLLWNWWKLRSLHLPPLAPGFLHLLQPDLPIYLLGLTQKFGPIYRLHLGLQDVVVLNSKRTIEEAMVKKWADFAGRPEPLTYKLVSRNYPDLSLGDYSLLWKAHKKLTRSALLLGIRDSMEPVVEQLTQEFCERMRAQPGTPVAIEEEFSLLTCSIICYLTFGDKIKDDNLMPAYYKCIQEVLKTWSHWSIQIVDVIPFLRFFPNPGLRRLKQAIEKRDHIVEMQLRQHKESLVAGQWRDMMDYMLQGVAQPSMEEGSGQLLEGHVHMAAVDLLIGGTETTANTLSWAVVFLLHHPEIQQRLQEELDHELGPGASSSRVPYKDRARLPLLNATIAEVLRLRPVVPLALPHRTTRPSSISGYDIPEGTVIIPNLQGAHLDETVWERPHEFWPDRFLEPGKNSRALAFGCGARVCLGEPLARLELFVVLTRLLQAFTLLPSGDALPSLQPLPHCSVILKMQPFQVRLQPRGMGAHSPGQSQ
Procedure, shortened: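 Percent inhibition at 100 nM: DOC in conditioned medium was read by ELISA at 450 nm and quantified from a standard curve. Stably transfected human Cyp21 HEK293 cells were pretreated 5 h with compound or 1% methanol mock, then given 10 μM final progesterone for 20 h at 37 °C.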

[3] = Rat liver microsome stability assay (Biological Example 8a); conditions: liver microsomes, pH 7.4
[4] = biological target: T1, CYP17 (human testicular microsome); test: CYP17 enzymatic assay (IC50) (Biological Example 4); type: biochemical
[5] = Human liver microsome stability assay (Biological Example 8b); conditions: liver microsomes, pH 7.4
[6] = test system: rat Cyp11B enzyme (rat adrenal mitochondria); test: CYP11B enzymatic assay (% inhibition at 100 nM) (Biological Example 9); type: biochemical; conditions: 100 nM compound, cortisol by ELISA
Procedure, shortened: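 Sprague Dawley rat adrenal mitochondria were incubated with compound at 100 nM, 0.5 mM NADPH and 0.1 μM 11-deoxycortisol (pH 7.4 Tris buffer) for 60 min at 37 °C. Cortisol was measured by ELISA and corrected by subtracting the no-NADPH background. % inhibition is relative to the no-compound reaction.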

CYP17 (H295R cells) = biological target: T3, CYP17 (H295R cells) (Homo sapiens, UniProt P05093); test: CYP17 cellular assay (IC50), testosterone in H295R cells (Biological Example 7); type: cell-based
T3 construct: endogenous in cells; host or cells: H295R cells
T3 sequence (P05093 1-508): T1 sequence (P05093 1-508)
Procedure, shortened: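 Testosterone in the medium was quantified by ELISA after 24 h at 37 °C with test compound (final 100, 10, 1, 0.1 nM; serum-free DMEM/F-12, ITS+, 0.1% methanol). The H295R cells had been seeded and grown 24 h beforehand; vehicle wells served as control.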

[7] = biological target: T1, CYP17 (human testicular microsome); test: CYP17 enzymatic assay (% inhibition at 1 nM) (Biological Example 12); type: biochemical; conditions: compound at 1 nM, read-out: CYP17 enzymatic assay % inhibition at 1 nM (Biological Example No. 12)
in vitro = conditions: human, microsomes, pH 7.4
[8] = human testicular microsome, DHEA by ELISA, read-out: Biological Example No. 4: CYP17 enzymatic assay IC50
[9] = H295R cells, testosterone by ELISA, 24 hours, read-out: Biological Example No. 7: CYP17 cellular assay IC50

inhibition at 0.01 µM [1] [%] | inhibition at 0.1 µM [2] [%] | half-life at 1 μM [3] [min] | pIC50 [4, 8] | SMILES | half-life at 1 μM [5] [min] | inhibition at 0.001 µM [7] [%] | half-life at 1 μM (in vitro) [min] | other results
50 to 80 | ≥ 30 | 10 to 60 | > 7.96 | Cc1cncc(C2=CC[C@H]3[C@@H]4CCC5=CC(=O)NCC[C@]5(C)[C@H]4CC[C@]23C)c1 [Compound 51] |  |  |  | 
> 80 | < 30 | 1 to 10 |  | C[C@]12CCNC(=O)C=C1CC[C@@H]1[C@@H]2CC[C@]2(C)C(n3ccnn3)=CC[C@@H]12 [Compound 59] | > 50 |  |  | Biological Example No. 9: CYP11B percent inhibition at 100 nM [6]: na (“na” means the compound was not active under the conditions tested)
50 to 80 | ≥ 30 | 1 to 10 |  | C[C@]12CCNC(=O)C=C1CC[C@@H]1[C@@H]2CC[C@]2(C)C(c3cncnc3)=CC[C@@H]12 [Compound 60, (5aR,7aS)-5a,7a-dimethyl-8-(pyrimidin-5-yl)-4,5,5a,5b,6,7,7a,10,10a,10b,11,12-dodecahydrocyclopenta[5,6]naphtho[2,1-c]azepin-3(2H)-one] |  |  |  | 
> 80 | ≥ 30 | 1 to 10 |  | C[C@]12CCNC(=O)C=C1CC[C@@H]1[C@@H]2CC[C@]2(C)C(c3cnccn3)=CC[C@@H]12 [Compound 61, (5aR,7aS)-5a,7a-dimethyl-8-(pyrazin-2-yl)-4,5,5a,5b,6,7,7a,10,10a,10b,11,12-dodecahydrocyclopenta[5,6]naphtho[2,1-c]azepin-3(2H)-one] |  |  |  | 
> 80 | < 30 | 10 to 60 | > 7.96 | CN1CC[C@@]2(C)C(=CC1=O)CC[C@@H]1[C@@H]2CC[C@]2(C)C(n3ccnc3)=CC[C@@H]12 [Compound 146] | 1 to 50 |  |  | Biological Example No. 9: CYP11B percent inhibition at 100 nM [6]: U (U means the compound had a percent inhibition of greater than or equal to 32%)
> 80 | < 30 | 1 to 10 | > 7.96 | C[C@]12CC[C@H]3[C@@H](CC[C@H]4CC(=O)NCC[C@@]43C)C1=CC=C2c1cccnc1 [Compound 165, (5aS,5bS,7aS,10bR,12aS)-5a,7a-dimethyl-8-(pyridin-3-yl)-3,4,5,5a,5b,6,7,7a,10b,11,12,12a-dodecahydrocyclopenta[5,6]naphtho[1,2-d]azepin-2(1H)-one] | 1 to 50 |  |  | Biological Example No. 9: CYP11B percent inhibition at 100 nM [6]: na (“na” means the compound was not active under the conditions tested)
 |  |  |  | COC(=O)N[C@@H]1CC[C@@]2(C)C(CCC3C2CC[C@]2(C)C(c4cccnc4)=CCC32)C1 (stereo partly drawn) [Compound 219, methyl ((3R,10S,13S)-10,13-dimethyl-17-(pyridin-3-yl)-2,3,4,5,6,7,8,9,10,11,12,13,14,15-tetradecahydro-1H-cyclopenta[a]phenanthren-3-yl)carbamate] |  | > 50 | 1 to 50 | 
 |  |  |  | COc1cncc(C2=CCC3C4CCC5C[C@H](NC(C)=O)CC[C@]5(C)C4CC[C@]23C)c1 (stereo partly drawn) [Compound 222, N-((3R,10S,13S)-17-(5-methoxypyridin-3-yl)-10,13-dimethyl-2,3,4,5,6,7,8,9,10,11,12,13,14,15-tetradecahydro-1H-cyclopenta[a]phenanthren-3-yl)acetamide] |  | > 50 | 1 to 50 | 
 |  |  |  | CC(=O)N[C@@H]1CC[C@@]2(C)C(=CC[C@@H]3[C@@H]2CC[C@]2(C)C(c4cncc(C(F)(F)F)c4)=CC[C@@H]32)C1 [Compound 231, N-((3R,10R,13S)-10,13-dimethyl-17-(5-(trifluoromethyl)pyridin-3-yl)-2,3,4,7,8,9,10,11,12,13,14,15-dodecahydro-1H-cyclopenta[a]phenanthren-3-yl)acetamide] |  | 10 to 50 | 1 to 50 | 
 |  |  |  | CCNC(=O)N[C@@H]1CC[C@@]2(C)C(=CC[C@@H]3[C@@H]2CC[C@]2(C)C(c4cccnc4)=CC[C@@H]32)C1 [Compound 232, 1-((3R,10R,13S)-10,13-dimethyl-17-(pyridin-3-yl)-2,3,4,7,8,9,10,11,12,13,14,15-dodecahydro-1H-cyclopenta[a]phenanthren-3-yl)-3-ethylurea] |  | > 50 | 1 to 50 | 
 |  |  |  | CC(=O)N[C@@H]1CC[C@@]2(C)C(CC[C@H]3C4=CC=C(c5cccnc5)[C@@]4(C)CC[C@@H]32)C1 (stereo partly drawn) [Compound 244, N-((3R,10S,13S)-10,13-dimethyl-17-(pyridin-3-yl)-2,3,4,5,6,7,8,9,10,11,12,13-dodecahydro-1H-cyclopenta[a]phenanthren-3-yl)acetamide] |  | > 50 | 1 to 50 | 

SMILES | inhibition at 0.01 µM [1] [%] | inhibition at 0.1 µM [2] [%] | half-life at 1 μM [3] [min] | pIC50 [4, 8] | half-life at 1 μM [5] [min] | inhibition at 0.001 µM [7] [%] | half-life at 1 μM (in vitro) [min] | other results
C[C@]12CC[C@H]3[C@@H](CCC4=CC(=O)CC[C@@]43C)C1=CC=C2n1ccnc1 [Compound 75, (10R,13S)-17-(1H-imidazol-1-yl)-10,13-dimethyl-6,7,8,9,10,11,12,13-octahydro-1H-cyclopenta[a]phenanthren-3(2H)-one] | > 80 | < 30 | 10 to 60 | > 7.96 | > 50 |  |  | Biological Example No. 9: CYP11B percent inhibition at 100 nM [6]: U (U means the compound had a percent inhibition of greater than or equal to 32%)
C[C@]12CCNC(=O)C[C@@H]1CC[C@@H]1[C@@H]2CC[C@]2(C)C(n3ccnn3)=CC[C@@H]12 [Compound 137] | > 80 |  | 10 to 60 | > 7.96 | > 50 |  |  | pIC50 (CYP17 (H295R cells); [9]): > 7.82
C[C@]12CC[C@H]3[C@@H](CC[C@H]4C[C@@H](O)CC[C@@]43C)C1=CC=C2n1ccnc1 [Compound 170, (5S,8R,9S,10S,13S)-17-(1H-imidazol-1-yl)-10,13-dimethyl-2,3,4,5,6,7,8,9,10,11,12,13-dodecahydro-1H-cyclopenta[a]phenanthren-3-ol] | > 80 |  | 10 to 60 |  | > 50 |  |  | pIC50 [4]: > 7.96; pIC50 (CYP17 (H295R cells); [9]): > 7.82
C[C@]12CC[C@H]3[C@@H](CC[C@H]4C[C@@H](O)CC[C@@]43C)C1=CC=C2n1ccnn1 [Compound 176, (3S,8R,9S,10S,13S)-10,13-dimethyl-17-(1H-1,2,3-triazol-1-yl)-2,3,4,5,6,7,8,9,10,11,12,13-dodecahydro-1H-cyclopenta[a]phenanthren-3-ol] |  |  | 1 to 10 |  |  |  |  | pIC50 [4]: < 7.60; pIC50 (CYP17 (H295R cells)): < 7.00
